Tested on: severe retinopathy (tractional retinal detachment, IRMA) in SDT rats
Experiment: Histopathological examination and fluorescein fundus angiography of severe retinopathy in spontaneously diabetic Torii (SDT) rats
Assay type: in vivo, rat
Protocol: Diabetes mellitus occurs in spontaneously diabetic Torii (SDT) rats at about 20 weeks of age. Accordingly, blood glucose levels were confirmed at about 25 weeks of age, and rats showing an increase in blood glucose level (at least 300 mg/dl) were used in the experiment. The male SDT rats confirmed to develop diabetes mellitus were divided into two groups, that is, 1) untreatment control (n=14) group and 2) SNK-860 treatment (16 mg/kg/day, n=17)group. The compound was mixed with usual feed (CRF-1: Oriental Yeast Co., Ltd.) and then administered into the rats. The CRF-1 solid feed not containing the compound was freely ingested by the control group, while CRF-1 solid feed containing 0.01333% SNK-860 was freely ingested by the SNK-860 treatment group. At 36 weeks of age and at 52 to 58 weeks of age, the rats were anesthetized and then the eyeballs were excised and used in histopathological examination. The SNK-860-containing feed was prepared in the following manner. SNK-860 was weighed and mixed well with a small amount of CRF-1 powdered feed. Thereafter, additional powdered feed was added thereto, stirred well and solidified. The dose established this time was 16 mg/kg. The concentration of this agent in the feed, calculated on the basis of the established dose, the weight of the rat and the amount of the feed ingested for 1 day, was 0.01333%. The histopathological examination was carried out in the following manner. The rat was anesthetized with ether and by intraperitoneal administration of Nembutal, and then the eyeballs were excised. The excised eyeballs were placed in a mixed solution (1:1:2) consisting of 4% glutaraldehyde, 10% neutral formalin and a phosphate buffer (pH 7.2, 0.3 mol/l). After 60 minutes, the eyeball was cut into halves under a stereoscopic microscope and then stored overnight at 4° C. The next morning, the eyeballs were embedded in a usual manner into paraffin to prepare a transverse section containing a bundle of optic nerves. The section was stained with hematoxylin-eosin. Fluorescein fundus angiography was carried out by opening the chest under the same anesthesia, injecting fluorescein dextran (Sigma, 50 mg/1 ml PBS) into the heart, and after 5 minutes, excising the eyeballs. That is, the retina was separated from the excised eyeball, spread on a slide glass to prepare a flat mounted specimen of the retina, then observed with a stereoscopic fluorescent microscope and photographed to evaluate retinopathy. When retinal fold (retinal detachment) accompanied by thickening of the retina around optic nerve head was recognized in the pathological examination, or when fluorescence dye leakage accompanied by retinal vascular tortuosity and/or caliber variation around optic nerve head was recognized in the fluorescein fundus photography, it was assumed that severe retinopathy occurred in the SDT rat. […] That is, it was attempted to clarify the inhibitory effect on the onset by setting a longer duration of the disease.

[1] = male SDT rats, 16 mg/kg/day in feed from about 25 weeks of age, at 36 weeks of age, pathological examination

In the case of `NC(=O)[C@@H]1C[C@]2(NC(=O)NC2=O)c2cc(F)ccc2O1` [SNK-860, (2S,4S)-6-fluoro-2′,5′-dioxospiro[chroman-4,4′-imidazolidine]-2-carboxamide], the “inhibitory effect on the onset of tractional retinal detachment (in words)” value (SDT rats, long-term administration) is reported as “strongly inhibited”, the “onset of tractional retinal detachment (affected eyes/examined eyes)” value [1] is reported as 0/3 and the “onset of tractional retinal detachment (percent of eyes)” value [1] is reported as 0%. The “degree of onset of tractional retinal detachment or fluorescence dye leakage accompanied by retinal vascular tortuosity and/or caliber variation around optic nerve head (affected eyes/examined eyes)” value (male SDT rats, 16 mg/kg/day in feed from about 25 weeks of age, at 52-58 weeks of age, untreated 7/11 eyes) was 3/14 and the “degree of onset of tractional retinal detachment or fluorescence dye leakage accompanied by retinal vascular tortuosity and/or caliber variation around optic nerve head (percent of eyes)” value (male SDT rats, 16 mg/kg/day in feed from about 25 weeks of age, at 52-58 weeks of age, untreated 64%) was 21%.

Source: US20070299119A1, “Prophylactic or Therapeutic Agent for Severe Diabetic Retinopathy” (SANWA KAGAKU KENKYUSHO CO., LTD., priority 2004, published 2007)
